This passage reports melting point results from patent publication US7888349B2, “Piperazine, [1,4]Diazepane, [1,4]Diazocane, and [1,5]Diazocane fused imidazo ring compounds” (3M Innovative Properties Company, priority 2003, dated 2011).

Counter-ions that a name gives are not always drawn.

The compound `CS(=O)(=O)N1CCn2c(nc3c(N)nc4ccccc4c32)C1` (as salt: trifluoroacetate) [Example 5, 9-(Methylsulfonyl)-8,9,10,11-tetrahydropyrazino[1′,2′:1,2]imidazo[4,5-c]quinolin-6-amine trifluoroacetate] displayed a melting point of 242 to 243 °C.

`CS(=O)(=O)N1CCCn2c(nc3c(N)nc4ccccc4c32)C1` (as salt: trifluoroacetate) [Example 7, 9-(Methylsulfonyl)-9,10,11,12-tetrahydro-8H-[1,4]diazepino[1′,2′:1,2]imidazo[4,5-c]quinolin-6-amine trifluoroacetate] returned a melting point of 250 to 250.9 °C.

Compound `CC(C)(C)[Si](C)(C)OC1CN(S(C)(=O)=O)Cc2nc3c(N)nc4ccccc4c3n2C1` (centres unmarked) [Example 1, 11-{[tert-Butyl(dimethyl)silyl]oxy}-9-(methylsulfonyl)-9,10,11,12-tetrahydro-8H-[1,4]diazepino[1′,2′:1,2]imidazo[4,5-c]quinolin-6-amine] came in with a melting point of 256 to 258 °C.

`CS(=O)(=O)N1Cc2nc3c(N)nc4ccccc4c3n2CC(O)C1` (centres unmarked) [Example 2, 6-Amino-9-(methylsulfonyl)-9,10,11,12-tetrahydro-8H-[1,4]diazepino[1′,2′:1,2]imidazo[4,5-c]quinolin-11-ol] registered a melting point of 282 to 283 °C.

`CC1(C)Cn2c(nc3c(N)nc4ccccc4c32)CN1S(C)(=O)=O` [Example 3, 10,10-Dimethyl-9-(methylsulfonyl)-8,9,10,11-tetrahydropyrazino[1′,2′:1,2]imidazo[4,5-c]quinolin-6-amine] showed a melting point of 227 to 228 °C.

`CC(C)(C)OC(=O)N1CCn2c(nc3c(N)nc4ccccc4c32)C1` [Example 4, tert-Butyl 6-amino-10,11-dihydropyrazino[1′,2′:1,2]imidazo[4,5-c]quinoline-9(8H)-carboxylate] registered a melting point of 207 °C.

Consider `CC(C)(C)OC(=O)N1CCCn2c(nc3c(N)nc4ccccc4c32)C1` [Example 6, tert-Butyl 6-amino-11,12-dihydro-8H-[1,4]diazepino[1′,2′:1,2]imidazo[4,5-c]quinoline-9(10H)-carboxylate], for which the melting point is 213 °C.

On to `CS(=O)(=O)N1CCCn2c(nc3c(N)nc4ccccc4c32)C1` [Example 8, 9-(Methylsulfonyl)-9,10,11,12-tetrahydro-8H-[1,4]diazepino[1′,2′:1,2]imidazo[4,5-c]quinolin-6-amine], for which the melting point was 280 °C.

Turning to `CS(=O)(=O)N1CCCn2c(nc3c(N)nc4c(c32)CCCC4)C1` [Example 363, 9-(Methylsulfonyl)-2,3,4,8,9,10,11,12-octahydro-1H-[1,4]diazepino[1′,2′:1,2]imidazo[4,5c]quinolin-6-amine], the melting point fell in the range of 270 to 272 °C.

Compound `CS(=O)(=O)N1CCCn2c(nc3c(N)nc4cc(Br)ccc4c32)C1` [Example 365, 3-Bromo-9-(methylsulfonyl)-9,10,11,12-tetrahydro-8H-[1,4]diazepino[1′,2′:1,2]imidazo[4,5-c]quinolin-6-amine] returned a melting point of 303 °C.

In turn, `CS(=O)(=O)N1CCCn2c(nc3c(N)nc4cc(-c5cccnc5)ccc4c32)C1` [Example 366, 9-(Methylsulfonyl)-3-pyridin-3-yl-9,10,11,12-tetrahydro-8H-[1,4]diazepino[1′,2′:1,2]imidazo[4,5-c]quinolin-6-amine] registered a melting point of 302 °C.

As for `CS(=O)(=O)N1CCn2c(nc3c(N)nc4cc(Br)ccc4c32)C1` [Example 367, 3-Bromo-9-(methylsulfonyl)-8,9,10,11-tetrahydropyrazino[1′,2′:1,2]imidazo[4,5-c]quinolin-6-amine], the melting point lay in the range of 315 to 317 °C.

For `CS(=O)(=O)N1CCn2c(nc3c(N)nc4cc(OCc5ccccc5)ccc4c32)C1` [Example 368, 3-(Benzyloxy)-9-(methylsulfonyl)-8,9,10,11-tetrahydropyrazino[1′,2′:1,2]imidazo[4,5-c]quinolin-6-amine], the melting point lay within 266 to 268 °C.

As for `CS(=O)(=O)N1CCCn2c(nc3c(N)nc4cc(OCc5ccccc5)ccc4c32)C1` [Example 369, 3-(Benzyloxy)-9-(methylsulfonyl)-9,10,11,12-tetrahydro-8H-[1,4]diazepino[1′,2′:1,2]imidazo[4,5-c]quinolin-6-amine], the melting point lay within 235 to 236 °C.
